Assay results as given in patent EP0352652B1, “Use of imexone as an immunosuppressive agent” (BOEHRINGER MANNHEIM GMBH, priority 1988, dated 1990).

What was measured:
humane B-Lymphozyten = experiment: BCGF-dependent proliferation of human B lymphocytes, [3H]-thymidine incorporation; assay type: cell-based
Experimental: Die Anreicherung von peripheren humanen B-Zellen und der BCGF-Proliferationsassay wurden wie folgt durchgeführt (vgl. a. Eur. J. Immun. 16, 350 (1986)): Angereicherte humane B-Lymphozyten werden zweimal gewaschen mit komplettiertem RPMI 1640 Medium (Streptomycin/Penicillin, L-Glutamin, 2-Mercaptoethanol, FCS) und auf 3 x 10⁵ Zellen/ml eingestellt. […] dieser Suspension werden jeweils pro Well in Mikrotiterplatten pipettiert. Als Pseudoantigen werden […] einer Lösung von HFCµS-IgG (300 µg/ml) zugegeben und als Wachstumsfaktor 20 µl BCGF (Cellular Products Incorporated) hinzugefügt. Dazu werden 20 µl der zu testenden Verbindung in 10facher Konzentration pipettiert. Die Kulturen werden insgesamt 140 h bei 37°, 5 % CO₂ und 95 % relativen Luftfeuchtigkeit inkubiert. 16 h vor Ablauf der Inkubationszeit wird jede Kultur mit 1 µ Ci einer [³H]-Thymidin-Lösung gepulst. Am Ende des Versuches werden die Zellen mit einem Harvester geerntet und die eingebaute Radioaktivität in einem Flüssigszintillationszähler bestimmt.

humaner Lymphozyten = experiment: Phytohaemagglutinin (PHA)-induced proliferation of human lymphocytes (LTT), [3H]-thymidine incorporation; assay type: cell-based
Experimental: 1 ml humanes Vollblut wird mit 500 µg PHA-Lösung (500 µg/ml) und 48 ml DMEM-Mediun verdünnt. Jeweils 200 µl dieses Ansatzes werden mit 20 µl der zu testenden Imexonkonzentration in 6-fach-Ansätzen gemischt und 4 Tage inkubiert. Nach Pulsen mit [³H]-Thymidin wird weitere 24 h inkubiert, geerntet und ausgewertet wie bei Beispiel 2 beschrieben.

[1] = test system: Leukozyten; Antikörper bildende Milzzellen; details: after application of Imexon; cited from earlier work
Milzzellen = experiment: Concanavalin A (ConA)-induced proliferation of murine splenocytes (LTT), [3H]-thymidine incorporation; assay type: cell-based, CB6F₁-Mäusen; details: for LTT (Splenozyten, ConA) ^3H-TdR cpm (n=6) x̄: 0,5 µg/ml ConA
Experimental: Milzzellen (4 x 10⁵) von CB6F₁-Mäusen werden mit 0,5 µg/ml ConA in Mikrotiterplatten (Nunc GmbH, Wiesbaden, FRG) und verschiedenen Konzentrationen von Imexon in 6-fach Ansätzen für insgesamt 48 h inkubiert. 5 h vor Ablauf der Inkubationszeit werden die Kulturen mit [³H]-Thymidin gepulst und anschließend auf Glasfiberfilterplattchen mittels eines Multisample Harvester (Skatron A.S., Lier, Norwegen) geerntet. Die Filterplättchen werden getrocknet, und die Radioaktivität in einem Packard Szintillationsspektrometer bestimmt.

Mäusestamm MRL 1pr/1pr = experiment: Autoimmune disease model in MRL mice (lymphadenomas, antinuclear autoantibodies), prophylactic and therapeutic treatment; assay type: in vivo, Maus
Description: B. Synthese von antinukleâren Autoantikörpern. Zur Untersuchung des prophylaktischen Effektes von Imexon auf die Entwicklung dieser Symptome wurden 11 Wochen alte MRL Mäuse einmal täglich intraperitoneal mit den angegebenen Dosierungen Imexon und Cyclophosphamid behandelt. Dokumentiert wurden die Zahl der Lymphadenome und die Konzentration antinukleärer Antikörper. Bei der Untersuchung zur therapeutischen Potenz von Imexon wurden MRL Mäuse, […] jedes Tier mindestens ein Lymphadenom […] an Imexon und Cyclophosphamid behandelt. Die Meßparameter waren wiederum Zahl der Lymphadenome sowie Autoantikö[…].

[2] = test system: Methylcholanthren-induzierte Fibrosarkomzellinie (MethA); experiment: Tumour growth inhibition assay (TGI), spontaneous proliferation of MethA cells, [3H]-thymidine incorporation; assay type: cell-based, CB6F₁-Mäusen
Experimental: Die Methylcholanthren-induzierte Fibrosarkomzellinie (MethA) wurde aus der eigenen Tumorzellbank erhalten und intraperitoneal in CB6F₁-Mäusen passagiert.
1 x 10⁴ MethA-Zellen werden mit der zu testenden Imexonkonzentration in DMEM-Medium über 48 h inkubiert. 3 h vor Ablauf der Inkubationszeit wird mit [³H]-Thymidin gepulst, geerntet und ausgewertet wie bei Beispiel 2 beschrieben.

Walker-Sarkoma 256 = details: rats, after application of Imexon; cited from earlier work
[3] = Homo sapiens, Lymphocyte, 140 h, read-out: BCGF (humane B-Lym-phozyten) %Hemmung
[4] = relative to suppression of BCGF-induced B-cell proliferation, not or only at these concentrations
[5] = prophylactic, 11-week-old MRL mice, once daily intraperitoneal
[6] = therapeutic, lymphoma-bearing MRL mice (ca. 14 weeks old), once daily

## N=C1NC(=O)N2CC12 (stereo not drawn) [Imexon, 4-Imino-1,3-diazabicyclo-(3.1.0)-hexan-2-on]
Humane B-Lymphozyten
  Proliferation von B-Lymphozyten: dosisabhängig hemmt
Humane B-Lymphozyten; [3]
  inhibition at 0.1 µg/mL: 13%
  inhibition at 0.3 µg/mL: 24%
  inhibition at 1 µg/mL: 62%
  inhibition at 3 µg/mL: 85%
  inhibition at 10 µg/mL: 90%
  inhibition at 30 µg/mL: 89%
  inhibition at 100 µg/mL: 90%
Humane B-Lymphozyten; Homo sapiens, Lymphocyte, 140 h, read-out: Konzentration, bei der die BCGF-induzierte B-Zellproliferation signifikant und spezifisch supprimiert wird
  minimal effective concentration: 1 µg/mL
Humane B-Lymphozyten; Imexon 0.1 µg/ml, 140 h
  BCGF (humane B-Lym-phozyten) ^3H-TdR cpm (n=6) x̄: 4847 cpm
Humane B-Lymphozyten; Imexon 0.3 µg/ml, 140 h
  BCGF (humane B-Lym-phozyten) ^3H-TdR cpm (n=6) x̄: 4201 cpm
Humane B-Lymphozyten; Imexon 1 µg/ml, 140 h
  BCGF (humane B-Lym-phozyten) ^3H-TdR cpm (n=6) x̄: 2096 cpm
Humane B-Lymphozyten; Imexon 3 µg/ml, 140 h
  BCGF (humane B-Lym-phozyten) ^3H-TdR cpm (n=6) x̄: 831 cpm
Humane B-Lymphozyten; Imexon 10 µg/ml, 140 h
  BCGF (humane B-Lym-phozyten) ^3H-TdR cpm (n=6) x̄: 574 cpm
Humane B-Lymphozyten; Imexon 30 µg/ml, 140 h
  BCGF (humane B-Lym-phozyten) ^3H-TdR cpm (n=6) x̄: 617 cpm
Humane B-Lymphozyten; Imexon 100 µg/ml, 140 h
  BCGF (humane B-Lym-phozyten) ^3H-TdR cpm (n=6) x̄: 562 cpm
Humaner Lymphozyten; Homo sapiens, Lymphocyte, Imexon 0.1 µg/ml, read-out: LTT (Splenozyten, PHA) %Hemmung
  inhibition at 0.1 µg/mL: 5%
Humaner Lymphozyten; Homo sapiens, Lymphocyte, Imexon 0.3 µg/ml, read-out: LTT (Splenozyten, PHA) %Hemmung
  inhibition at 0.3 µg/mL: -3%
Humaner Lymphozyten; Homo sapiens, Lymphocyte, Imexon 1 µg/ml, read-out: LTT (Splenozyten, PHA) %Hemmung
  inhibition at 1 µg/mL: -11%
Humaner Lymphozyten; Homo sapiens, Lymphocyte, Imexon 3 µg/ml, read-out: LTT (Splenozyten, PHA) %Hemmung
  inhibition at 3 µg/mL: 19%
Humaner Lymphozyten; Homo sapiens, Lymphocyte, Imexon 10 µg/ml, ** p < 0.001, read-out: LTT (Splenozyten, PHA) %Hemmung
  inhibition at 10 µg/mL: 89%
Humaner Lymphozyten; Homo sapiens, Lymphocyte, Imexon 30 µg/ml, ** p < 0.001, read-out: LTT (Splenozyten, PHA) %Hemmung
  inhibition at 30 µg/mL: 99%
Humaner Lymphozyten; Homo sapiens, Lymphocyte, Imexon 100 µg/ml, ** p < 0.001, read-out: LTT (Splenozyten, PHA) %Hemmung
  inhibition at 100 µg/mL: 99%
Humaner Lymphozyten; Homo sapiens, Lymphocyte, induced by PHA, read-out: Konzentrationen, bei denen die Lymphozytenproliferation signifikant gehemmt wird
  minimal effective concentration: > 10 µg/mL
Humaner Lymphozyten; Imexon 0.1 µg/ml
  LTT (Splenozyten, PHA) ^3H-TdR cpm (n=6) x̄: 41849 cpm
Humaner Lymphozyten; Imexon 0.3 µg/ml
  LTT (Splenozyten, PHA) ^3H-TdR cpm (n=6) x̄: 45542 cpm
Humaner Lymphozyten; Imexon 1 µg/ml
  LTT (Splenozyten, PHA) ^3H-TdR cpm (n=6) x̄: 49348 cpm
Humaner Lymphozyten; Imexon 3 µg/ml
  LTT (Splenozyten, PHA) ^3H-TdR cpm (n=6) x̄: 35850 cpm
Humaner Lymphozyten; Imexon 10 µg/ml
  LTT (Splenozyten, PHA) ^3H-TdR cpm (n=6) x̄: 4724 cpm
Humaner Lymphozyten; Imexon 30 µg/ml
  LTT (Splenozyten, PHA) ^3H-TdR cpm (n=6) x̄: 573 cpm
Humaner Lymphozyten; Imexon 100 µg/ml
  LTT (Splenozyten, PHA) ^3H-TdR cpm (n=6) x̄: 585 cpm
Humaner Lymphozyten; [4]
  höhere Konzentrationen, bei denen die PHA-induzierte Lymphozytenproliferation beeinflußt wird: 10-30 fach
[1]
  Leukozyten: Anstieg der Leukozyten
  Zahl der Antikörper bildenden Milzzellen: Anstieg der Zahl der Antikörper bildenden Milzzellen
Milzzellen; Imexon 0.1 µg/ml, 48 h
  LTT (Splenozyten, ConA) ^3H-TdR cpm (n=6) x̄: 109717 cpm
Milzzellen; Imexon 0.3 µg/ml, 48 h
  LTT (Splenozyten, ConA) ^3H-TdR cpm (n=6) x̄: 134032 cpm
Milzzellen; Imexon 1 µg/ml, 48 h
  LTT (Splenozyten, ConA) ^3H-TdR cpm (n=6) x̄: 119120 cpm
Milzzellen; Imexon 3 µg/ml, 48 h
  LTT (Splenozyten, ConA) ^3H-TdR cpm (n=6) x̄: 118487 cpm
Milzzellen; Imexon 10 µg/ml, 48 h
  LTT (Splenozyten, ConA) ^3H-TdR cpm (n=6) x̄: 24895 cpm
Milzzellen; Imexon 30 µg/ml, 48 h
  LTT (Splenozyten, ConA) ^3H-TdR cpm (n=6) x̄: 2509 cpm
Milzzellen; Imexon 100 µg/ml, 48 h
  LTT (Splenozyten, ConA) ^3H-TdR cpm (n=6) x̄: 903 cpm
Milzzellen; Splenocyte, 48 h, Imexon 0.1 µg/ml, read-out: LTT (Splenozyten, ConA) %Hemmung
  inhibition at 0.1 µg/mL: 0%
Milzzellen; Splenocyte, 48 h, Imexon 0.3 µg/ml, read-out: LTT (Splenozyten, ConA) %Hemmung
  inhibition at 0.3 µg/mL: -22%
Milzzellen; Splenocyte, 48 h, Imexon 1 µg/ml, read-out: LTT (Splenozyten, ConA) %Hemmung
  inhibition at 1 µg/mL: -8%
Milzzellen; Splenocyte, 48 h, Imexon 3 µg/ml, read-out: LTT (Splenozyten, ConA) %Hemmung
  inhibition at 3 µg/mL: -8%
Milzzellen; Splenocyte, 48 h, Imexon 10 µg/ml, ** p < 0.001, read-out: LTT (Splenozyten, ConA) %Hemmung
  inhibition at 10 µg/mL: 77%
Milzzellen; Splenocyte, 48 h, Imexon 30 µg/ml, ** p < 0.001, read-out: LTT (Splenozyten, ConA) %Hemmung
  inhibition at 30 µg/mL: 98%
Milzzellen; Splenocyte, 48 h, Imexon 100 µg/ml, ** p < 0.001, read-out: LTT (Splenozyten, ConA) %Hemmung
  inhibition at 100 µg/mL: 99%
Milzzellen; Splenocyte, 48 h, induced by ConA, read-out: Konzentrationen, bei denen die Lymphozytenproliferation signifikant gehemmt wird
  minimal effective concentration: > 10 µg/mL
Milzzellen; [4]
  höhere Konzentrationen, bei denen die ConA-induzierte Lymphozytenproliferation beeinflußt wird: 10-30 fach
Mäusestamm MRL 1pr/1pr; MRL mice, once daily intraperitoneal
  Verträglichkeit: sehr guter Verträglichkeit
Mäusestamm MRL 1pr/1pr; [5]
  Konzentration DNA spezifischer Antikörper: erniedrigt
  Zahl spontan entstehender Lymphadenome: erniedrigt
Mäusestamm MRL 1pr/1pr; [6]
  Titer der Autoantikörper: nimmt dosisabhängig ab
  Zahl der Lymphadenome: nimmt dosisabhängig ab
[2]; Imexon 0.1 µg/ml, 48 h
  TGI (MethA) ^3H-TdR cpm (n=6) x̄: 31722 cpm
[2]; Imexon 0.3 µg/ml, 48 h
  TGI (MethA) ^3H-TdR cpm (n=6) x̄: 37593 cpm
[2]; Imexon 1 µg/ml, 48 h
  TGI (MethA) ^3H-TdR cpm (n=6) x̄: 35475 cpm
[2]; Imexon 3 µg/ml, 48 h
  TGI (MethA) ^3H-TdR cpm (n=6) x̄: 35473 cpm
[2]; Imexon 10 µg/ml, 48 h
  TGI (MethA) ^3H-TdR cpm (n=6) x̄: 21913 cpm
[2]; Imexon 30 µg/ml, 48 h
  TGI (MethA) ^3H-TdR cpm (n=6) x̄: 911 cpm
[2]; Imexon 100 µg/ml, 48 h
  TGI (MethA) ^3H-TdR cpm (n=6) x̄: 534 cpm
[2]; Meth-A, 48 h, Imexon 0.1 µg/ml, read-out: TGI (MethA) %Hemmung
  inhibition at 0.1 µg/mL: 7%
[2]; Meth-A, 48 h, Imexon 0.3 µg/ml, read-out: TGI (MethA) %Hemmung
  inhibition at 0.3 µg/mL: -11%
[2]; Meth-A, 48 h, Imexon 1 µg/ml, read-out: TGI (MethA) %Hemmung
  inhibition at 1 µg/mL: -4%
[2]; Meth-A, 48 h, Imexon 3 µg/ml, read-out: TGI (MethA) %Hemmung
  inhibition at 3 µg/mL: -4%
[2]; Meth-A, 48 h, Imexon 10 µg/ml, ** p < 0.001, read-out: TGI (MethA) %Hemmung
  inhibition at 10 µg/mL: 35%
[2]; Meth-A, 48 h, Imexon 30 µg/ml, ** p < 0.001, read-out: TGI (MethA) %Hemmung
  inhibition at 30 µg/mL: 97%
[2]; Meth-A, 48 h, Imexon 100 µg/ml, ** p < 0.001, read-out: TGI (MethA) %Hemmung
  inhibition at 100 µg/mL: 98%
[2]; Meth-A, 48 h, spontaneous proliferation, read-out: Konzentration, ab der die Spontanproliferation von MethA-Sarkomzellen signifikant unterdrückt ist
  minimal effective concentration: > 10 µg/mL
[2]; [4]
  höhere Konzentrationen, bei denen die spontane Proliferation von MethA beeinflußt wird: 10-30 fach
Walker-Sarkoma 256
  Tumorwachstum von Walker-Sarkoma 256: Hemmung des Tumorwachstums
